Experimental data taken from patent US20200101056A1, “USE OF ROCK INHIBITORS FOR PROMOTING SINONASAL EPITHELIAL CELL REPAIR” (priority 2018, published 2020).

Assays:
Type in all cases: cell-based, human
[1] = tested on: pNECs monolayers from CRSwNP patients; assay: Wound healing assay (epithelial repair rate) of injured pNECs monolayers from CRSwNP patients; details: 6 h
Protocol: diagnosis was performed according to the 2004 AAO-HNS guidelines^31, and patients underwent ESS following failure of medical treatment. Control patients underwent ESS for cerebral spinal fluid leak or non-secreting pituitary adenomas. Exclusion criteria for both groups comprised immune deficiencies, neoplasia, ciliary dyskinesia, cystic fibrosis, and systemic immunosuppression. Tissues obtained during surgery at the level of anterior ethmoidal bulla (control) or the polyp itself ([…]) were immediately collected for subsequent cell isolation and culture. After recovery, pNECs were isolated following a standardized procedure^32-35. […] After 18 h, Fetal Bovine Serum was added to the solution to neutralize the protease-DNase activity, and pNECs were gently scraped off the remaining tissue. […] Images were registered using AxioVisionTM 4.8 software (Carl Zeiss, Jena, Germany) and then analyzed with Image J software (NIH, Bethesda, Md., USA) to measure areas at t=0 h and t=6 h of wound healing and then to calculate the repair rates (expressed in μm^2/h).

[2] = tested on: nasal epithelia from CRSwNP patients; assay: Immunofluorescence of cytoskeleton and lamellipodial cell quantification at the wound edge, nasal epithelia from CRSwNP patients; details: 4 h
Protocol: pNECs were grown to confluency on coverslips (precision cover glasses thickness No. 1.5H, Marienfeld, Lauda-Konigshofen, Germany) coated with Purecol™. After injury, (3 mechanical wounds/coverslip), cell monolayers were washed and then treated with either: 1) LB (concentration of 0.5% (v/v)): negative control, 2) SA exoproducts (concentration of 0.5% (v/v) SA filtrate) and 3) SA exoproducts (concentration of 0.5% (v/v) SA filtrate) and Y-27632 (5 μM). After 4 h of repair, cell monolayers were fixed with 4% paraformaldehyde in PBS for 5 min, permeabilized with 0.1% Triton™ X-100 in PBS for 10 min. After blocking (in 1% BSA in PBS for at least 1h at 4° C.), fixed cells were incubated with the primary anti-β-tubulin antibody (1:1000 in PBS+BSA1%, Millipore, Etobicoke, Canada) for 1 h at room temperature, and then with Alexa Fluor®-488 conjugated goat anti-mouse antibody secondary antibody (1:2000 in PBS+BSA1%,1 h, room temperature Thermo Fischer Scientific, Waltham, USA). F-actin was stained with Phalloidin-Alexa Fluor® 594 (1 unit, Thermo Fischer Scientific) (in PBS+BSA1%, for 1 h at room temperature) and nuclei with DAPI (1:1000 in PBS+BSA1%, for 5 min). Coverslips were mounted with ProLong® Gold Antifade Reagent (Molecular Probes, Eugene, USA) on SuperFrost™ glass slides (Thermo Fisher Scientific). Images were acquired with an inverted confocal microscope (TCS SP5, Leica Microsystems, Wetzlar, Germany) using an oil-immersion objective 63×/1.4. On immunofluorescence images, cells at the wound edge were classified according to the categories “with” or “without” lamellipodia as well as “ambiguous morphology” (see FIG. 10)^39. Percentages of cells in each category were then calculated.

[3] = tested on: pNEC; assay: Pilot study of Y-27632 dose on epithelial repair in pNEC
Description: pNECs were injured mechanically (3 wounds/well, 3 wells/condition), using a well-established, highly reproducible technique^32,34,37. After wounding, the cultures were washed to remove detached cells, and then randomly treated in either of the following conditions (performed in triplicate): 1) negative control: 0.5% (v/v) of LB, 2) exposure to SA exoproducts, (at both concentrations of 0.25% and 0.5% (v/v) SA filtrate), and 3) exposure to SA exoproducts (both concentrations of 0.25% and 0.5% (v/v) SA filtrate) and the ROCK inhibitor Y-27632 dihydrochloride (5 μM, Sigma-Aldrich®).
A mark on wells allowed us to capture images of the wounds at exactly the same place at t=0 h and t=6 h using an inverted microscope with a 4× objective (Nikon Eclipse™ TE 2000). Images were registered using AxioVision™ 4.8 software (Carl Zeiss, Jena, Germany) and then analyzed with Image J software (NIH, Bethesda, Md., USA) to measure areas at t=0 h and t=6 h of wound healing and then to calculate the repair rates (expressed in μm^2/h).
The effect of a potent Rho kinase (ROCK) inhibitor, Y-27632, on epithelial repair in pNECs exposed to SA exoproducts was assessed. It was first determined, in a pilot study, that 5 μM was the optimal dose for Y-27632 in pNEC.

[4] = tested on: pNECs from CRSwNP patients; assay: Analysis of lamellipodial dynamics by kymograph, pNECs from CRSwNP patients; details: SA 0.5% + Y-27632 5 μM, 0-2 h and 2-4 h, CRSwNP pNECs (FIG. 6)
Protocol: Brightfield time-lapse series were made on pNECs from patients with CRSwNP and control subjects plated in 2-well silicone culture inserts (Ibidi #80209, Fitchburg, USA) using an inverted Axio ObserverZ1 microscope equipped with a CoolSNAP™ EZ CCD camera and a 10×/0.3 NA air objective lens, and then analyzed by AxioVision™ software.
Immediately prior to image acquisition, cells were treated with LB (control condition for SA) or LB+water (control condition for SA+Y-27632). Cells were then positioned into the incubation chamber (37° C., 5% CO2) and images were captured every minute for 2 h to observe cell protrusions and retractions. Then, cells were treated with either SA exoproducts (concentration of 0.5% (v/v)) or a mix of SA (concentration of 0.5% v/v) and Y-27632 (5 μM), with the recording pursued during the following 4 h.
A one pixel-wide line crossing the cell membrane perpendicularly to the lamellipodia was drawn, and this region was extracted from each image of the time-lapse series, as previously described by Choi et al.^38. […] Data derived from these segmented lines were generated using “read velocity tsp macro” of ImageJ and used to calculate the length and velocity of each protrusion. At least a total of 40-110 individual protrusion events per condition and at least 14 different cells were analyzed in 3 independent time-lapse series.

[5] = CRSwNP, SA 0.5% + vehicle (SA) or SA 0.5% + Y-27632 5 μM (SA+Y) (FIG. 7B)

C[C@@H](N)[C@H]1CC[C@H](C(=O)Nc2ccncc2)CC1 [Y-27632]
increase of repair rates compared to corresponding SA condition in the absence of Y-27632 ([1]; Y-27632 5 μM co-cultured with SA 0.25%): 1.86 fold
increase of repair rates compared to corresponding SA condition in the absence of Y-27632 ([1]; Y-27632 5 μM with SA 0.5%): 2.22 fold
cells with lamellipodia [2, 5]: 65%
cells without lamellipodia [2, 5]: 8%
lamellipodial extensions at the leading edge (cytoskeleton organization) ([2]; SA 0.5% + Y-27632 5 μM, CRSwNP (FIG. 7A)): partially restored lamellipodial extensions
increase in epithelial repair rate ([3]; 5 μM, in LB condition): 23%
effect of increasing concentrations on pNECs ([3]; concentrations above 5 μM): altered migration and induced pNECs apoptosis
optimal dose in pNEC ([3]; pilot study): 5 μM
length and velocity of protrusions after SA+Y vs. LB [4]: non-significant
